Laboratory results published in patent EP2891491A1, “Use of (r)-phenylpiracetam for the treatment of sleep disorders” (Merz Pharma GmbH & Co. KGaA, priority 2014, dated 2015).
Values joined by “and” are separate entries in the source; they are usually repeats but may differ in a detail not shown here. Equal entries are not always repeated.

How the values were obtained:
[1] = biological target: T1, neuronal dopamine re-uptake transporter (Homo sapiens, UniProt Q01959); assay: functional monoamine transporter assay: [3H]-dopamine uptake in CHO-K1 cells expressing dopamine transporters; type: cell-based; details: functional assays, read-out: affinity for the neuronal dopamine re-uptake transporter
T1 construct: expressed in transfected cells
Method: Using functional monoamine transporter assays, we determined the potential drug targets for (R)-phenylpiracetam.
Recombinant Chinese hamster ovary (CHO) cells CHO-K1 (ATCC® CCL-61 ™) cells stably expressing dopamine transporters are plated. The cells (2 x 10^5/ml) are pre-incubated with test compound and/or vehicle in modified Tris-HEPES buffer pH 7.1 at 25°C for 20 min and 50 nM [^3H]-dopamine is then added for an additional 15 min incubation period. Non-specific signal is determined in the presence of 10 µM nomifensine. Cells are then solubilized with 1% SDS lysis buffer. Reduction of [^3H]-dopamine uptake by 50 percent or more (≥50%) relative to vehicle controls indicates significant inhibitory activity. Compounds are screened at 10, 1, 0.1, 0.01 and 0.001 µM. These same concentrations are concurrently applied to a separate group of untreated cells and evaluated for possible compound-induced cytotoxicity only if significant inhibition of uptake is observed.

[2] = tested on: extracellular dopamine levels in rat striatum; assay: brain microdialysis: extracellular dopamine levels in rat striatum; type: in vivo, rats; details: 100 mg/kg i.p.
Method: EXAMPLE 2: Assessment of (R)-phenylpiracetam on extracellular dopamine levels in rat striatum using brain microdialysis - Fig. 1
(R)-Phenylpiracetam was dissolved in saline and injected intraperitoneally (i.p).
Adult male Sprague-Dawley rats (n = 5, ∼300 g; Harlan, The Netherlands) were used for the experiments. After surgery animals were housed individually (cages 30 cm x 30 cm x 40 cm) with food and water was ad libitum available at standard conditions. The post-surgery interval for recovery was minimally 48 h.
Rats were anesthetized using isoflurane (2%, 800 ml/min O2), and placed in a stereotaxic frame (Kopf instruments, USA). […]
Concentrations of DA and DOPAC were determined in the same sample, by HPLC separation and electrochemical detection. DA and DOPAC were detected electrochemically using a potentiostate (Antec Leyden, model Intro, the Netherlands) fitted with a glassy carbon electrode set at +500 mV vs. Ag/AgCl (Antec Leyden, the Netherlands). Data was analyzed by Chromatography Data System (Shimadzu, class-vp, Japan) software. Concentrations were quantified by the external standard method.
After transmitter levels were stabilized, four consecutive pre-treatment microdialysis samples with less than 50% variation were taken as baseline and their mean was set at 100%. […] Transmitter concentration in each fraction was expressed as % ± SEM (standard error mean) of baseline.

rats = assay: locomotor activity (horizontal activity) in rats; type: in vivo; details: i.p. 15 min before test, starting at the dose of 100 mg/kg
Method: EXAMPLE 4: Effect of (R)-phenylpiracetam on locomotor activity (horizontal activity) in rats - Fig. 3
Experimentally naive adult male Sprague-Dawley rats (230-300 g) are kept four per cage, in a room with controlled temperature (21 ± 1°C) and humidity. Food and water are available ad libitum and the animals are kept under an alternating 12 h / 12 h day-night cycle (lights on at 07.00) for at least 6 days before the experiments are started. Each animal is used only once. Experimental group consist of 8 animals per group.
Horizontal locomotor activity was measured in 8 perspex boxes (ENV-515-16, 43.2 cm x 43.2 cm x 30 cm), Med-Associates Inc.) equipped with 4 arrays of 16 infrared photobeams placed 3 cm above the floor. Distance travelled (DT) was used in further analysis as a measure of locomotion.
(R)-Phenylpiracetam was administered i. p. in a volume of 2 ml/kg in saline
Data with locomotor activity were analyzed by means of Kruskal-Wallis ANOVA on ranks followed, if significant, by rank sum test.

[3] = model for depression; cited from earlier work

T1 sequence (Q01959 whole entry): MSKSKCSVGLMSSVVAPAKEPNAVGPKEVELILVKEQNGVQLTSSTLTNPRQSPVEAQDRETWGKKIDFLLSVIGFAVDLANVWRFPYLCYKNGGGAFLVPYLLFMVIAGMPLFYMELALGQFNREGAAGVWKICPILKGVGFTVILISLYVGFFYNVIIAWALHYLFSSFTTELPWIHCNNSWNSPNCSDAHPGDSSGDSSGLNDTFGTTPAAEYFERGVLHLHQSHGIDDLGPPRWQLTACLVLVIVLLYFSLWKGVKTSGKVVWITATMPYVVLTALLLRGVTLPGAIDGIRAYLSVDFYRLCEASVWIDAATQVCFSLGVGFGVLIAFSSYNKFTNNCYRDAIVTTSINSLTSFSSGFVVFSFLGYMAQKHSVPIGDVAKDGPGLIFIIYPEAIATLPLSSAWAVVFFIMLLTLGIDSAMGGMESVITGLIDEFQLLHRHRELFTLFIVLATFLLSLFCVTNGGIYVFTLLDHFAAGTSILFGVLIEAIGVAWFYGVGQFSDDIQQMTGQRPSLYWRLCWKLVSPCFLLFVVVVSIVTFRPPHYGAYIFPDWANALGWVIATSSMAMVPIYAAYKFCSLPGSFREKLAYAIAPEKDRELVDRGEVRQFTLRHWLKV

NC(=O)CN1C[C@@H](c2ccccc2)CC1=O [(R)-phenylpiracetam]
IC50 [1]: ~13 µM and 13 µM
concentration of dopamine in the striatum [2]: increases extracellular dopamine levels
locomotor activity (horizontal activity) (rats): increases locomotor activity
potency in the forced swim test [3]: only slightly more potent than (S)-phenylpiracetam
